The test system of the data set is HT-29 cells. As to the kind of experiment: Additional cytotoxicity assays, resazurin (Table 3.1). The class given is cell-based, human. The following applies: for EC50: Homo sapiens. As for the experimental part:
10× concentrated serial dilutions of the two compounds were prepared in appropriate culture medium for final concentrations ranging from 2.0×10^−5 M to 2.0×10^−10 M. Ten μl volumes of the 10× serial dilutions were added to the test wells in triplicate and the plates returned to the incubator for 48 hours.
Following 48 hours of drug exposure 10 μl of 0.2 mg/ml resazurin (obtained from Sigma-Aldrich Chemical Co.) in Mg^2+, Ca^2+ free PBS was added to each well and the plates were returned to the incubator for 3-4 hours. […] Resazurin dye without cells was used to determine the background, which was subtracted from the data for all experimental wells. The data were analyzed using Prism software (GraphPad Software).
Additional cytotoxicity assays were performed as described above under this example, using Resazurin fluorescence as an indicator of cell viability.
(In general: Resazurin is reduced to fluorescent resorufin, in cell work by metabolically active cells.)

The mark [1] stands for this setting: HT-29, Table 3.1, read-out: EC50 (M) Mean.

We go through 40 molecules from patent US8129527B2, “Analogs of dehydrophenylahistins and their therapeutic use” (Nereus Pharmacuticals, Inc., priority 2006, dated 2012).

SMILES strings stand for the structures. Like-named read-outs stand apart in the source and are kept apart here.

In general, EC50 refers to the concentration that produces a half-maximal response. Regarding `C=CC(C)(C)c1[nH]cnc1/C=C1\N=C(OC)C(Cc2ccccc2)N=C1OC` (racemic) [Compound 2354, D,L-bislactim-PLH], under setting [1], the EC50 is above 2e-05 M. Besides, where the note is “Table 3.1”, the “% cytotox Mean” value is 4%.
The matching figures for `C=CC(C)(C)c1[nH]cnc1/C=C1\NC(=O)C(Cc2ccccc2)N=C1OC` (racemic) [Compound 2355, D,L-monolactim-PLH]: above 2e-05 M and 13%.
The corresponding values for `C=CC(C)(C)c1[nH]cnc1/C=C1\NC(=O)[C@H](Cc2ccccc2)NC1=O` [Compound 2350, (−)-(S)-Halimide, (−)-(S)-Phenylahistin, (−)-(S)-PLH, reference compound] are 3.94e-07 M and 87%.
The corresponding values for `C=CC(C)(C)c1[nH]cnc1/C=c1\[nH]c(=O)/c(=C/c2ccccc2)[nH]c1=O` [Compound 2352, Dehydrophenylahistin] are 4.26e-08 M and 86%.
With `C=CC(C)(C)c1[nH]cnc1/C=c1\[nH]c(=O)/c(=C\c2ccc(OC)cc2)[nH]c1=O` [Compound 2357], the EC50 under setting [1] is 8.25e-06 M. Besides, the “% cytotox Mean” value (Table 3.1) was found to be 63%.
Consider `CC(C)(C)c1[nH]cnc1/C=c1\[nH]c(=O)/c(=C/c2ccccc2)[nH]c1=O` [Compound 2358, t-butyl-delta-PLH], for which, where the note is “HT-29, read-out: EC50 (M) Mean”, the EC50 was 1.49e-08 M. For the same molecule, under “Table 3.1”, the “% cytotox Mean” value was 86%.
The matching figures for `COc1cc(/C=c2\[nH]c(=O)/c(=C/c3nc[nH]c3C(C)(C)C)[nH]c2=O)cc(OC)c1OC` [Compound 2362, tBu-ΔPLH-3,4,5-triOMe]: 8.19e-06 M and 78%.
For `COc1cc(/C=c2\[nH]c(=O)/c(=C/c3nc[nH]c3C(C)(C)C)[nH]c2=O)cc(OC)c1` [Compound 2367, tBu-delta-3,5-diOMe], the EC50 under setting [1] worked out at 4.54e-08 M. Further, the “% cytotox Mean” value (Table 3.1) amounted to 87%.
Take `COc1ccc(/C=c2\[nH]c(=O)/c(=C/c3nc[nH]c3C(C)(C)C)[nH]c2=O)c(OC)c1OC` [Compound 2368, tBu-delta-PLH-2,3,4-triOMe]: the EC50 under setting [1] stood at 4.8e-06 M. The “% cytotox Mean” value (Table 3.1) was 78%.
The corresponding values for `CC(C)(C)c1[nH]cnc1/C=c1\[nH]c(=O)/c(=C/c2cc([N+](=O)[O-])ccc2Cl)[nH]c1=O` [Compound 2371, tBu-delta-PLH-2-Cl-5-NO2] are 5.34e-08 M and 86%.
The corresponding values for `CC(C)(C)c1[nH]cnc1/C=c1\[nH]c(=O)/c(=C/c2ccc3c(c2)OCO3)[nH]c1=O` [Compound 2372, tBu-delta-PLH-3,4-methylene-dioxy] are 8.73e-08 M and 84%.
Take `COc1cccc(/C=c2\[nH]c(=O)/c(=C/c3nc[nH]c3C(C)(C)C)[nH]c2=O)c1O` [Compound 2373, tBu-delta-PLH-2-OH-3-OMe (o-vanillin)]: the EC50 under setting [1] was 5.36e-06 M. In addition, where the note is “Table 3.1”, the “% cytotox Mean” value turned out to be 79%.
The corresponding values for `COc1cccc2cc3c(=O)[nH]/c(=C\c4nc[nH]c4C(C)(C)C)c(=O)n3c12` [Compound 2374, tBu-delta-PLH-cyclized-3-MeO] are 6.92e-06 M and 58%.
For `Cc1ccc(/C=c2\[nH]c(=O)/c(=C/c3nc[nH]c3C(C)(C)C)[nH]c2=O)s1` [Compound 2378, tBu-delta-PLH-5-Me-2-thienyl], the EC50 under setting [1] worked out at 8.52e-08 M. For the same molecule, the “% cytotox Mean” value (Table 3.1) was 85%.
The corresponding values for `Cc1ccsc1/C=c1\[nH]c(=O)/c(=C/c2nc[nH]c2C(C)(C)C)[nH]c1=O` [Compound 2379, tBu-delta-PLH-3-Me-2-thienyl] are 4.7e-08 M and 86%.
The corresponding values for `CC(C)(C)c1[nH]cnc1/C=c1\[nH]c(=O)/c(=C/c2cccc3c2OCO3)[nH]c1=O` [Compound 2381, tBu-delta-PLH-2,3-methylendioxy] are 5.2e-07 M and 82%.
`Cc1cccc(/C=c2\[nH]c(=O)/c(=C/c3nc[nH]c3C(C)(C)C)[nH]c2=O)n1` [Compound 2384, tBu-delta-PLH-3-Me-2-pyridyl]: under setting [1], the EC50 is above 2e-05 M. The “% cytotox Mean” value (Table 3.1) amounted to 37%.
The corresponding values for `Cc1[nH]cnc1/C=c1\[nH]c(=O)/c(=C/c2nc[nH]c2C(C)(C)C)[nH]c1=O` [Compound 2387, tBu-delta-PLH-5-Me-4-im] are 2.35e-06 M and 84%.
As for `CC(C)(C)c1[nH]cnc1/C=c1\[nH]c(=O)/c(=C/c2ccc(C#N)cc2)[nH]c1=O` [Compound 2394, tBu-delta-PLH-p-CN], the EC50 under setting [1] was above 2e-05 M. In addition, the “% cytotox Mean” value (Table 3.1) amounted to 14%.
The matching figures for `COc1cc(OC)c(/C=c2\[nH]c(=O)/c(=C/c3nc[nH]c3C(C)(C)C)[nH]c2=O)c(OC)c1` [Compound 2396, tBu-delta-PLH-2,4,6-TriOMe]: above 2e-05 M and 2%.
The corresponding values for `CC(C)(C)c1[nH]cnc1/C=c1\[nH]c(=O)/c(=C/c2cc(Cl)ccc2[N+](=O)[O-])[nH]c1=O` [Compound 2403, tBu-delta-PLH-2-NO2-5-Cl] are 9.97e-08 M and 86%.
The matching figures for `COc1ccc(O)c(/C=c2\[nH]c(=O)/c(=C/c3nc[nH]c3C(C)(C)C)[nH]c2=O)c1` [Compound 2405, tBu-delta-PLH-2-OH-5-OMe]: above 2e-05 M and 25%.
In the case of `CC(C)(C)c1[nH]cnc1/C=c1\[nH]c(=O)/c(=C/c2cc(Br)ccc2O)[nH]c1=O` [Compound 2407, tBu-delta-PLH-2-OH-5-Br], the EC50 under setting [1] was above 2e-05 M. Moreover, the “% cytotox Mean” value (Table 3.1) amounted to 13%.
The corresponding values for `COc1ccc(/C=c2\[nH]c(=O)/c(=C/c3nc[nH]c3C(C)(C)C)[nH]c2=O)cc1O` [Compound 2408, tBu-delta-PLH-3-OH-4-OMe] are 7.48e-06 M and 66%.
The matching figures for `COc1ccc(/C=c2\[nH]c(=O)/c(=C/c3nc[nH]c3C(C)(C)C)[nH]c2=O)c(O)c1` [Compound 2409, tBu-delta-PLH-2-OH-4-OMe]: above 2e-05 M and 8%.
The corresponding values for `CC(C)(C)c1[nH]cnc1/C=c1\[nH]c(=O)/c(=C/c2cc(Cl)ccc2O)[nH]c1=O` [Compound 2410, tBu-delta-PLH-2-OH-5-Cl] are above 2e-05 M and 37%.
As to `CC(C)(C)c1[nH]cnc1/C=c1\[nH]c(=O)/c(=C/c2ccc(Cl)s2)[nH]c1=O` [Compound 2412, tBu-delta-PLH-5-Cl-2-thionyl], for the setting “HT-29, read-out: EC50 (M) Mean”, the EC50 was 1.65e-07 M. Also, for the setting “Table 3.1”, the “% cytotox Mean” value was 85%.
Take `Cn1cccc1/C=c1\[nH]c(=O)/c(=C/c2nc[nH]c2C(C)(C)C)[nH]c1=O` [Compound 2414, tBu-delta-PLH-N-Me-2-pyrrole]: under setting [1], the EC50 came to 1.17e-07 M. In addition, the “% cytotox Mean” value (Table 3.1) was 88%.
On to `CC(C)(C)c1[nH]cnc1/C=c1\[nH]c(=O)/c(=C/c2cc(Cl)cc(Cl)c2)[nH]c1=O` [Compound 2415, tBu-delta-PLH-3,5-diCl], for which the EC50 under setting [1] was determined as 9.49e-08 M. For the same molecule, the “% cytotox Mean” value (Table 3.1) was 87%.
The corresponding values for `CC(C)(C)c1ccc(O)c(/C=c2\[nH]c(=O)/c(=C/c3ccccc3)[nH]c2=O)c1` [Compound 2422, tBu-delta-PLH-2-Hydroxybenzyl] are above 2e-05 M and 14%.
Take `CC(C)(C)c1[nH]cnc1/C=c1\[nH]c(=O)/c(=C/c2cc(Br)cs2)[nH]c1=O` [Compound 2423, tBu-delta-PLH-4-Br-2-thionyl]: the EC50 under setting [1] was determined as 1.71e-07 M. The “% cytotox Mean” value (Table 3.1) worked out at 86%.
The corresponding values for `CCc1ccc(/C=c2\[nH]c(=O)/c(=C/c3nc[nH]c3C(C)(C)C)[nH]c2=O)s1` [Compound 2424, tBu-delta-PLH-5-Et-2-thionyl] are 1.32e-07 M and 87%.
The corresponding values for `CC(C)(C)c1[nH]cnc1/C=c1\[nH]c(=O)/c(=C/c2ccc(Br)o2)[nH]c1=O` [Compound 2425, tBu-delta-PLH-5-Br-2-furyl] are 3.05e-08 M and 87%.
The corresponding values for `CCc1ccc(/C=c2\[nH]c(=O)/c(=C/c3nc[nH]c3C(C)(C)C)[nH]c2=O)o1` [Compound 2426, tBu-delta-PLH-5-Et-2-furyl] are 2.42e-07 M and 86%.
Turning to `CC(C)(C)c1[nH]cnc1/C=c1\[nH]c(=O)/c(=C/c2cc(I)ccc2F)[nH]c1=O` [Compound 2428, tBu-delta-PLH-2-F-5-I], the EC50 under setting [1] was 4.17e-08 M. Besides, the “% cytotox Mean” value (Table 3.1) was found to be 87%.
The matching figures for `CSc1ccccc1/C=c1\[nH]c(=O)/c(=C/c2nc[nH]c2C(C)(C)C)[nH]c1=O` [Compound 2429, tBu-delta-PLH-2-(Methylthio)]: 2.86e-08 M and 87%.
In the case of `CC(C)(C)c1[nH]cnc1/C=c1\[nH]c(=O)/c(=C/c2cccc(OC(F)(F)F)c2)[nH]c1=O` [Compound 2430, tBu-delta-PLH-m-OCF3], the EC50 under setting [1] worked out at 1.43e-08 M. In addition, the “% cytotox Mean” value (Table 3.1) is reported as 87%.
The matching figures for `COc1ccc(F)c(/C=c2\[nH]c(=O)/c(=C/c3nc[nH]c3C(C)(C)C)[nH]c2=O)c1` [Compound 2431, tBu-delta-PLH-2-F5-OMe]: 2.03e-08 M and 88%.
The corresponding values for `COc1cc(/C=c2\[nH]c(=O)/c(=C/c3nc[nH]c3C(C)(C)C)[nH]c2=O)ccc1F` [Compound 2432, tBu-delta-PLH-4-F-3-OMe] are 4.93e-07 M and 85%.
For `CC(C)(C)c1ccc(O)c(/C=c2\[nH]c(=O)/c(=C/c3nc[nH]c3C(C)(C)C)[nH]c2=O)c1` [Compound 2433, tBu-delta-PLH-2-OH-5-tBU], the EC50 under setting [1] is 8.53e-06 M. In addition, the “% cytotox Mean” value (Table 3.1) is 80%.
